Source: patent US8778890B2, “Leptin antagonist and methods of use” (Temple University—of the Commonwealth System of Higher …, priority 2009, dated 2014)
Where two headings read alike, the source gives them in different places. Where a SMILES comes first, the peptide text is derived from it. Where no end group is shown, it is not given here. [ ]: non-standard residue; d: D form. NMeR = CN[C@@H](CCCNC(=N)N)C(=O)O; aThr = C[C@H](O)[C@H](N)C(=O)O; Nva = CCC[C@H](N)C(=O)O; Ahx = NCCCCCC(=O)O; βAla = NCCC(=O)O

Experiments:
[1] = mouse, in vivo, ip
serum stability = type: in vitro ADME, mouse
Method: The stabilities of the peptides of amino acid sequence SEQ ID NO:4 and SEQ ID NO:49 were determined in 25% serum, and 100% serum, in terms of their half-lives. For serum stability studies, […] of an aqueous peptide stock solution, containing about 0.8 mg/mL peptide, were added to 2.5 mL of 25% or 100% aqueous pooled mouse serum. The peptide-serum mixture was thermostated at 37° C. After 0 min, 45 min, 60 min, 90 min, 2 h, 4 h, and 8 h, three 210 μL of the samples of peptides were taken and precipitated by the addition of 40 μL of 15% aqueous trichloroacetic acid. The samples were stored at 4° C. for 20 min and centrifuged. The supernatants were immediately frozen in dry-ice, and […], of each were analyzed on RP-HPLC and/or MALDI-MS.

[2] = chronic and acute toxicity; type: in vivo, mice
Method: The peptide of amino acid sequence SEQ ID NO:4 was evaluated for chronic and acute toxicity in mice. Three female Black/6 mice received intraperitoneally either bolus 0.5 mg/kg or 2 mg/kg or 30 mg/kg peptide SEQ ID NO:4, or 0.5 mg/kg/day or 2 mg/kg/day peptide SEQ ID NO:4 over a 10 day period. Two days after termination of the experiments, the mice were weighed and sacrificed, and the livers, brains, spleens and kidneys were weighed.

[3] = tested on: LN229 (glioma) cells (ObR-positive); type: cell-based; settings: 2 h
Excerpt: (§1) Immunol. Methods 94:57-63).

[4] = weight gain of growing mice; type: in vivo
Method: Six weeks old Black/6 mice (mixed race) and F344 female rats were grown on regular lab chow and had access to food and water ad libidum. Treatment started at day 0, with four mice (2 males and 2 females) and 4 rats per group. The animals received the peptide of amino acid sequence SEQ ID NO:4 or physiological salt solution once daily. The mice and rats were dosed according to the following schedule: • Group 1: Mice, salt solution intraperitoneally; • Groups 2 and 3: Mice 0.1 mg/kg/day or 0.01 mg/kg/day peptide of amino acid sequence SEQ ID NO:4 intraperitoneally in 100 microliter salt solution; • Groups 4 and 5: Mice 1 mg/kg/day or 0.1 mg/kg/day peptide of amino acid sequence SEQ ID NO:4 subcutaneously (under the shoulder blade) in 100 microliter salt solution; • Groups 6 and 7: Mice 10 mg/kg/day or 1 mg/kg/day peptide of amino acid sequence SEQ ID NO:4 orally in 100 microliter salt solution; • Group 8: Rats, 10 microliter salt solution, intranasally; • Group 9: Rats. 0.1 mg/kg/day peptide of amino acid sequence SEQ ID NO:4 intranasally in 10 microliter salt solution. […]
The therapeutic utility of full ObR antagonists was studied further by the ability of peptide of amino acid sequence SEQ ID NO:4 to increase the appetite of normal, growing mice as measured by accelerated weight gain and increased food intake upon various modes of peptide administration. […]

[5] = organ toxicity testing after 14 days of treatment (Example 4); type: in vivo, mice and rats; settings: any conditions
Method: Six weeks old Black/6 mice (mixed race) and F344 female rats were grown on regular lab chow and had access to food and water ad libidum. Treatment started at day 0, with four mice (2 males and 2 females) and 4 rats per group. The animals received the peptide of amino acid sequence SEQ ID NO:4 or physiological salt solution once daily. The mice and rats were dosed according to the following schedule: • Group 1: Mice, salt solution intraperitoneally; • Groups 2 and 3: Mice 0.1 mg/kg/day or 0.01 mg/kg/day peptide of amino acid sequence SEQ ID NO:4 intraperitoneally in 100 microliter salt solution; • Groups 4 and 5: Mice 1 mg/kg/day or 0.1 mg/kg/day peptide of amino acid sequence SEQ ID NO:4 subcutaneously (under the shoulder blade) in 100 microliter salt solution; • Groups 6 and 7: Mice 10 mg/kg/day or 1 mg/kg/day peptide of amino acid sequence SEQ ID NO:4 orally in 100 microliter salt solution; • Group 8: Rats, 10 microliter salt solution, intranasally; • Group 9: Rats. 0.1 mg/kg/day peptide of amino acid sequence SEQ ID NO:4 intranasally in 10 microliter salt solution.
After 14 days the animals were sacrificed and their liver, brain, kidneys and spleen were submitted for toxicity testing.

[6] = tested on: MCF-7 breast cancer cells (ObR-positive); type: cell-based, human
Excerpt: as §1

[7] = tested on: ObR-positive cancer cells (brain and breast); type: cell-based
Method: The effect of the peptides of the invention on the proliferation of ObR-positive cancer cells (brain and breast) in the presence (IC50) or absence (EC50) of exogenous leptin protein (6 nM) is summarized in Table 1.

[8] = tested on: ObR-positive cancer cells (brain and breast); type: cell-based; settings: presence of exogenous leptin (6 nM)
[9] = tested on: two brain tumor cell lines; experiment: leptin receptor antagonism in brain tumor cell lines; type: cell-based
[10] = 25% aqueous pooled mouse serum, 37° C., read-out: half-life in 25% serum
[11] = 100% pooled mouse serum, 37° C., read-out: half-life in 100% serum
[12] = ip bolus 0.5, 2 or 30 mg/kg, or 0.5 or 2 mg/kg/day for 10 days
[13] = mouse serum, read-out: half-life in mouse serum

With “Alexa 680-labeled peptide of amino acid sequence SEQ ID NO:49: peptide of SEQ ID NO:49 labeled with the fluorescent dye Alexa 680 ([aThr]E[Nva]VALSR[Ahx]-NH2; not fully specified (N-terminus); printed as alloThr-Glu-Nva-Val-Ala-Leu-Ser-Arg-AcpNH2; also: Alexa 680 label, site not given here)” the “migration into further tissues, blood-brain barrier penetration” value [1] was “migrated into the tail, limbs and the brain”.

For `CCC[C@H](NC(=O)[C@H](CCC(=O)O)NC(=O)[C@@H](N)[C@@H](C)O)C(=O)N[C@H](C(=O)N[C@@H](C)C(=O)N[C@@H](CC(C)C)C(=O)N[C@@H](CO)C(=O)N[C@@H](CCCNC(=N)N)C(=O)NCCCCCC(N)=O)C(C)C` [SEQ ID NO:4, Thr-Glu-Nva-Val-Ala-Leu-Ser-Arg-AcpNH2] (H-TE[Nva]VALSR[Ahx]-NH2), the half-life (serum stability; [10]) was 20 min, the half-life (serum stability; [11]) was 5 min and the NOAEL ([2]; female, Black/6, mouse, in vivo, ip, intraperitoneal bolus, read-out: highest studied dose found not toxic, acute) was 30 mg/kg. For the same molecule, the NOAEL at 240 h ([2]; female, Black/6, mouse, in vivo, ip, intraperitoneal, 10 days, read-out: highest studied dose found not toxic, chronic) was 2 mg/kg/day, the “gross necropsy, treated versus non-treated” value [2, 12] was “no alteration” and the “liver, brain, spleen and kidney weights, treated versus non-treated” value [2, 12] was “identical”. The IC50 [3] was 2 to 3 nM, the “necropsy of the major organs” value ([4]; C57BL/6 mice) was “no signs of toxicity” and the “toxic effects in liver, brain, kidneys and spleen” value [5] was “No obvious toxic effects”. For the same molecule, the IC50 ([6]; 2 h) was 2 to 3 nM and the EC50 [7] was > 1000 nM.

With `CCC[C@H](NC(=O)[C@H](CCCNC(=N)N)NC(=O)[C@H](CO)NC(=O)[C@H](CC(C)C)NC(=O)[C@H](C)NC(=O)[C@H](CCC)NC(=O)[C@H](CCC)NC(=O)[C@H](CCC(=O)O)NC(=O)[C@@H](N)[C@@H](C)O)C(N)=O` [SEQ ID NO:47, Thr-Glu-Nva-Nva-Ala-Leu-Ser-Arg-NvaNH2] (H-TE[Nva][Nva]ALSR[Nva]-NH2) the half-life (serum stability; [13]) was 8 min and the EC50 [7] was > 1000 nM.

In the case of `CCC[C@H](NC(=O)[C@@H](N)CCC(=O)O)C(=O)N[C@H](C(=O)N[C@@H](C)C(=O)N[C@@H](CC(C)C)C(=O)N[C@@H](CO)C(=O)N[C@@H](CCCNC(=N)N)C(=O)NCCCCCC(N)=O)C(C)C` [SEQ ID NO:51, Glu-Nva-Val-Ala-Leu-Ser-Arg-AcpNH2] (H-E[Nva]VALSR[Ahx]-NH2; N-terminus assumed), the IC100 [8] is reported as 100 nM, the EC50 [7] is reported as > 500 nM and the pharmacology [7] is reported as “weak full”.

In the case of `CCC[C@H](NC(=O)[C@H](CCC(=O)O)NC(=O)[C@@H](N)[C@H](C)O)C(=O)N[C@H](C(=O)N[C@@H](C)C(=O)N[C@@H](CC(C)C)C(=O)N[C@@H](CO)C(=O)N[C@@H](CCCNC(=N)N)C(=O)NCCCCCC(N)=O)C(C)C` [SEQ ID NO:49, alloThr-Glu-Nva-Val-Ala-Leu-Ser-Arg-AcpNH2] (H-[aThr]E[Nva]VALSR[Ahx]-NH2), the half-life (serum stability; [10]) is reported as 40 min, the half-life (serum stability; [11]) is reported as 10 min and the EC50 [7] is reported as > 1000 nM.

With `CCC[C@H](NC(=O)[C@H](CCCNC(=N)N)NC(=O)[C@H](CO)NC(=O)[C@H](CC(C)C)NC(=O)[C@H](C)NC(=O)[C@H](CCC)NC(=O)[C@H](CCC)NC(=O)[C@H](CCC(=O)O)NC(=O)[C@@H](NC(C)=O)[C@@H](C)O)C(N)=O` [SEQ ID NO:48, AcNH-Thr-Glu-Nva-Nva-Ala-Leu-Ser-Arg-NvaNH2] (Ac-TE[Nva][Nva]ALSR[Nva]-NH2) the half-life (serum stability; [13]) was 14 min and the “cell viability profile compared with the unprotected variant” value [6] was “no change”.

For `CCC[C@H](NC(=O)[C@H](CCC(=O)O)NC(=O)[C@@H](CO)NC(C)=O)C(=O)N[C@H](C(=O)N[C@@H](C)C(=O)N[C@@H](CC(C)C)C(=O)N[C@@H](CO)C(=O)N(C)[C@@H](CCCNC(=N)N)C(=O)NCCC(N)=O)C(C)C` [SEQ ID NO:6, (D)-Ser-Glu-Nva-Val-Ala-Leu-Ser-N-MeArg-bAlaNH2] (Ac-[dS]E[Nva]VALS[NMeR][βAla]-NH2; N-terminus assumed), the agonistic activity [9] was “no agonistic activity”, the “cell growth without stimulation with leptin protein” value [9] was “does not influence cell growth” and the “IC100, antagonistic activity against the leptin receptor” value ([9]; two brain tumor cell lines in vitro) was 10 to 100 pM. The IC100 [8] was <1 nM, the EC50 [7] was > 1000 nM and the pharmacology [7] was “super antagonist”.

B1: leptin: neurohormone, native ObR ligand; human leptin purchased from R&D Systems (protein, listed as Homo sapiens)
chain: VPIQKVQDDTKTLIKTIVTRINDISHTQSVSAKQRVTGLDFIPGLHPILSLSKMDQTLAVYQQVLTSLPSQNVLQIANDLENLRDLLHLLAFSKSCSLPQTSGLQKPESLDGVLEASLYSTEVVALSRLQGSLQDILQQLDVSPEC
With B1 the “reduction of normal weight gain compared to untreated mice” value ([4]; 0.1 mg/kg/day intraperitoneally, day 8) was 5%.
